Where a SMILES comes first, the peptide text is derived from it.
Legend:
[1] = tested on: bovine aorta endothelial cell (BAE); format: cell-based; details: 72 h; for inhibition of BAE cell proliferation (in words): bFGF 1 ng/ml
Description: The peptides were tested in an in vitro bovine aorta endothelial cell (BAE) proliferation assay for their ability to inhibit BAE cell proliferation. Cells were plated into 24-well culture plates at 1.25×10^4 cells/well in complete SFM-endothelial medium (Gibco, USA). After 24 h, the medium was removed and various amounts of peptides were added into the wells in 0.5 ml of SFM-endothelial medium without bFGF. After 30 minutes incubation, bFGF was added into each well at a final concentration of 1 ng/ml together with another 0.5 ml of SFM-endothelial medium. Seventy-two hours later, cells were trypsinized and counted using a hemocytometer. Commercial E. coli recombinant human angiostatin (1 μM) was used as a control in the experiments.
Peptides were tested in an in vitro bovine aorta endothelial cell (BAE) proliferation assay for their ability to inhibit BAE cell proliferation. Cells were plated into 24-well culture plates at the number of 1.25×10^4/well in complete SFM-endothelial media (Gibco, USA). After 24 hours, the medium was removed and various amounts of peptides were added into the wells in 0.5 ml of SFM-endothelial medium without bFGF. After 30 minutes incubation, bFGF was added into each well at a final concentration of 1 ng/ml together with another 0.5 ml of SFM-endothelial medium. Seventy-two hours later, cells were trypsinized and counted using a hemocytometer. […] The IC50 of the Endo-2, -3 and -4 peptides is estimated to be 0.4 uM, 0.3 uM and 2 uM respectively.

[2] = tested on: primary tumor growth and metastasis; details: mice; cited from earlier work
[3] = 100 mg/kg/day; cited from earlier work
[4] = tested on: bovine aorta endothelial cell (BAE); details: reported in reference 5; cited from earlier work
[5] = tested on: chick embryo chorioallantoic membrane (CAM); experiment: chick embryo chorioallantoic membrane (CAM) in vivo angiogenesis assay; details: for inhibition of chick CAM angiogenesis (in words): peptide on cover slip, compared to PBS control
Description: Since peptides Angio-2, Angio-3 and Angio-4 all inhibited BAE cell proliferation, they were also tested in the chick embryo chorioallantoic membrane (CAM) in vivo angiogenesis assay (7). In this assay, the peptides are coated onto 2-3 mm glass squares cut from microscope cover slips. […] Peptide Angio-3 reduced microvessel density at the very low dose of 12 pg/cover slip (the lowest dose tested, comparing to a PBS control). As a positive control, recombinant angiostatin at the dose of 100 ug/cover slip was tested in the same experiment. The amount of inhibition (judging from the extent of reduction in microvessel density) from 100 ug recombinant angiostatin is equivalent to 1.2 ug of Angio-3 peptide.

[6] = tested on: chick embryo chorioallantoic membrane (CAM); experiment: as above; details: 10 day embryo, 12 ug/cover slip
[7] = tested on: BAE cells; experiment: BAE cell cytotoxicity by trypan blue staining and cellular morphology; format: cell-based, bovine; details: 20 μM, trypan blue staining and microscopic cellular morphology
Description: The IC50 of the three peptides are about 2 mM, 20 nM and 200 uM respectively.

[8] = tested on: Human hepatoma cell line HepG2; details: mouse, in vivo, 15 mg/kg, 12 h
Description: Human hepatoma cell line HepG2 was cultured and 1 million cells were injected subcutaneously into the right back of each 6 weeks old BALB/c nude mouse. Visible tumors appear from about 2 weeks after tumor cell injection. Mice with tumors were then randomly grouped and injected with the peptide at 300 μg/mouse every 12 h (16-19 g average weight). […] Tumor sizes were measured with a caliper every three days and volumes calculated using the formula (width)^2×length×0.52. Statistical analyses were done using student t-test using the SigmaStat software (SPSS, USA). Tumors are angiogenesis dependent. To test if peptide angio-3 can inhibit tumor growth in vivo, human hepatoma HepG2 cells were injected subcutaneously into nude mice to induce tumor formation. Tumor nodules appear in about 15-18 days after tumor cell injection. Peptide was then injected at a distant site from the tumor into tumor bearing mice at 15 mg/kg every 12 h for up to a month. […] Experiments were terminated when the control group tumors started to show necrosis.

Compound | IC50 [1] | inhibition of BAE cell proliferation (in words) [1] | inhibition of chick CAM angiogenesis (in words) [5] | also measured
CC[C@H](C)[C@H](NC(=O)[C@@H]1CCCN1C(=O)[C@@H](N)C(C)C)C(=O)N[C@H](C(=O)N[C@@H](CC(N)=O)C(=O)N[C@@H](CC(C)C)C(=O)N[C@@H](CCCCN)C(=O)N[C@@H](CC(=O)O)C(=O)N[C@@H](CCC(=O)O)C(=O)N[C@H](C(=O)N[C@@H](CC(C)C)C(=O)N[C@@H](CO)C(=O)N1CCC[C@H]1C(=O)N[C@@H](CO)C(=O)O)C(C)C)C(C)C [Endo-3] (H-VPIVNLKDEVLSPS-OH; N-terminus and C-terminus assumed) | ~0.3 µM | inhibited BAE cell proliferation in a dose-dependent manner |  | 
angiostatin |  |  |  | dose at which inhibition of metastasis is observed [2]: about 1 mg/kg/day; dose at which inhibition of primary tumor growth is observed [2]: about 10 mg/kg/day; toxicity in mice [3]: without observable toxicity; reported IC50 range, endothelial cell proliferation [4]: nanomolar range
CC[C@H](C)[C@H](NC(=O)[C@H](Cc1ccc(O)cc1)NC(=O)CNC(=O)[C@H](Cc1c[nH]cn1)NC(=O)[C@H](C)NC(=O)[C@H](Cc1c[nH]cn1)NC(=O)[C@@H]1CCCN1C(=O)[C@@H](N)CO)C(=O)N1CCC[C@H]1C(=O)N[C@@H](CO)C(=O)O [Angio-2] (H-SPHAHGYIPS-OH; N-terminus and C-terminus assumed) | ~2000 µM | inhibited BAE cell proliferation in a dose-dependent manner | inhibited chick CAM angiogenesis | inhibition of chick CAM angiogenesis (FIG. 5) [6]: Inhibition of chick CAM angiogenesis
hFLT2-7: further N-terminal truncation of hFLT2 (TLKKFPL; Mammalian; hFLT2-7) |  |  | non-functional peptide | 
C[C@@H](O)[C@H](N)C(=O)N1CCC[C@H]1C(=O)N[C@@H](Cc1c[nH]cn1)C(=O)N[C@H](C(=O)N[C@@H](Cc1c[nH]cn1)C(=O)N[C@@H](CC(N)=O)C(=O)N[C@@H](CCCNC(=N)N)C(=O)N[C@H](C(=O)N1CCC[C@H]1C(=O)N[C@@H](CCC(=O)O)C(=O)O)[C@@H](C)O)[C@@H](C)O [Angio-3] (H-TPHTHNRTPE-OH) | ~0.02 µM |  |  | cell cytotoxicity with BAE cells [7]: No obvious cell cytotoxicity; inhibition of HepG2 tumor growth [8]: about 40%
C[C@@H](O)[C@H](N)C(=O)N1CCC[C@H]1C(=O)N[C@@H](Cc1c[nH]cn1)C(=O)N[C@@H](CCCNC(=N)N)C(=O)N[C@@H](Cc1c[nH]cn1)C(=O)N[C@@H](CCC(N)=O)C(=O)N[C@@H](CCCCN)C(=O)N[C@H](C(=O)N1CCC[C@H]1C(=O)N[C@@H](CCC(=O)O)C(=O)O)[C@@H](C)O [Angio-4] (H-TPHRHQKTPE-OH; N-terminus and C-terminus assumed) | ~200 µM | inhibited BAE cell proliferation in a dose-dependent manner | inhibited chick CAM angiogenesis | inhibition of chick CAM angiogenesis (FIG. 3, 4) ([5]; 4 day embryo, 120 ug/cover slip): Inhibition of chick CAM angiogenesis
hFLT2-5: further N-terminal truncation of hFLT2 (KKFPL; Mammalian; hFLT2-5) |  |  | non-functional peptide | 
CC(C)[C@H](NC(=O)[C@H](CO)NC(=O)[C@H](CCCCN)NC(=O)[C@H](CCC(N)=O)NC(=O)[C@@H]1CCCN1C(=O)[C@H](Cc1c[nH]c2ccccc12)NC(=O)[C@H](C)NC(=O)[C@@H]1CCCN1C(=O)[C@@H](N)Cc1c[nH]cn1)C(=O)N[C@@H](Cc1c[nH]c2ccccc12)C(=O)N[C@@H](Cc1c[nH]cn1)C(=O)NCC(=O)N[C@@H](CO)C(=O)N[C@@H](CC(=O)O)C(=O)N1CCC[C@H]1C(=O)N[C@@H](CO)C(=O)O [Endo-4] (H-HPAWPQKSVWHGSDPS-OH; N-terminus and C-terminus assumed) | ~2 µM | inhibited BAE cell proliferation in a dose-dependent manner |  | inhibition of chick CAM angiogenesis (FIG. 8) ([5]; 10 day embryo, 1.8 μg/coverslip): Inhibition of chick CAM angiogenesis
hFLT2: small peptide designed from Ig domain 2 of the extracellular region of FLT-1 (SPNITVTLKKFPL; Mammalian; hFLT2) |  |  | very potent angiogenesis inhibition activity | 
fVEGF: peptide designed from Zebrafish VEGF (YPDEIEHTYIPS; Mammalian; fVEGF) |  |  | dose-dependent inhibition of CAM angiogenesis | 
Endo-1: endostatin-derived small peptide (SPHNSYIVLPI; Mammalian; Endo-1) |  | only a slight inhibition effect at high doses |  | 
mVEGF: peptide designed from mammalian VEGF sequences (YPDEIEYIFKPS; Mammalian; mVEGF) |  |  | dose-dependent inhibition of CAM angiogenesis | inhibition of chick CAM angiogenesis (FIG. 9A-9B) ([5]; 13 day embryo, various doses, 0 and 40 hours incubation): Inhibition of chick CAM angiogenesis
CC(C)C[C@H](NC(=O)[C@@H]1CCCN1C(=O)[C@@H](NC(=O)[C@H](CC(N)=O)NC(=O)[C@H](CC(C)C)NC(=O)[C@H](C)NC(=O)[C@@H](NC(=O)[C@H](CC(C)C)NC(=O)[C@H](Cc1c[nH]cn1)NC(=O)[C@H](CC(C)C)NC(=O)[C@@H](NC(=O)[C@@H]1CCCN1C(=O)[C@@H](N)CCC(N)=O)C(C)C)C(C)C)[C@@H](C)O)C(=O)O [Endo-2] (H-QPVLHLVALNTPL-OH; N-terminus and C-terminus assumed) | ~0.4 µM | inhibited BAE cell proliferation in a dose-dependent manner |  | 
